# Experimental data as given in US20080274522A1, “METHOD FOR THE PRODUCTION OF 2-BUTANONE” (priority 2007, published 2008).
# Columns and labels:
# [1] = test system: B12-independent diol dehydratase; settings: Hartmanis et al. (1986); cited from earlier work
# E. coli strain BW25113 = assay: Survival of E. coli in MEK shock; format: cell-based, Escherichia coli; settings: for % Survival at 28° C. / % Survival at 37° C.: 30 min, average of duplicate experiments
# Protocol: Survival of MEK shock was tested at exposure temperatures of 28° C. or 37° C.
# glycerol dehydratase = assay: Butanediol dehydratase activity of glycerol dehydratase; format: biochemical, Klebsiella pneumoniae; settings: 10 mM meso-2,3-butanediol, 12 μM coenzyme B12, pH 8.2, 37° C., crude cell free extract of KLP23/pSYCO12
# Source text: Glycerol dehydratase (E.C. 4.2.1.30) and diol dehydratase (E.C. 4.2.1.28), while structurally related, are often distinguished in the art based on various differences that include substrate specificity. […] The recombinant E. coli strain KLP23/pSYCO12, comprising Klebsiella pneumoniae genes encoding the multiple subunits of glycerol dehydratase (alpha: SEQ ID NO:145 (coding region) and 146 (protein); beta: SEQ ID NO: 147 (coding region) and 148 (protein); and gamma: SEQ ID NO: 149 (coding region) and 150 (protein)) and Klebsiella pneumoniae genes encoding the multiple subunits of glycerol dehydratase reactivase (large subunit, SEQ ID NO: 151 (coding region) and 152 (protein); and small subunit, SEQ ID NO: 153 (coding region) and 154 (protein)), is described in Emptage et al. U.S. Pat. No. 6,514,733 and in WO 2003089621, which are herein incorporated by reference. A crude, cell free extract of KLP23/pSYCO12 was prepared by methods known to one skilled in the art. […] The formation of 2-butanone was monitored by HPLC (Shodex SH-1011 column and SH-G guard column with refractive index detection; 0.01 M H2SO4 as the mobile phase at a flow rate of 0.5 mL/min and a column temperature of 50° C.; 2-butanone retention time=40.2 min). The rate of 2-butanone formation by the glycerol dehydratase preparation was determined to be 0.4 nmol/min/mg of crude protein.
compound,measurement,setting,value
"CC(O)C(C)O (centres unmarked) [2,3-butanediol]",Activity relative to the activity towards ethanediol,[1],less than 1%
"CCC(C)=O [MEK, 2-butanone]",Concentration with full survival,E. coli strain BW25113; 28° C.,6 % w/v
same,Concentration with full survival,E. coli strain BW25113; 37° C.,4 % w/v
same,Concentration with no survival,E. coli strain BW25113; 37° C.,6 % w/v
same,% Survival at 28° C.,E. coli strain BW25113; MEK 4 % w/v,100%
same,% Survival at 37° C.,E. coli strain BW25113; MEK 4 % w/v,100%
same,% Survival at 28° C.,E. coli strain BW25113; MEK 6 % w/v,100%
same,% Survival at 37° C.,E. coli strain BW25113; MEK 6 % w/v,0%
same,% Survival at 28° C.,E. coli strain BW25113; MEK 8 % w/v,0.002%
same,% Survival at 37° C.,E. coli strain BW25113; MEK 8 % w/v,0%
"CC(O)C(C)O (stereo not drawn) [meso-2,3-butanediol]",Rate of 2-butanone formation,glycerol dehydratase,0.4 nmol/min/mg of crude protein
